In test [1] the test system is Male Sprague Dawley rats. Description: Dural inflammation migraine model, tactile hyperesthesia of the hindpaw (50% paw withdrawal threshold, von Frey filaments). The format is in vivo, rat.
For test [2], the system named is Male Sprague Dawley rats. Nature of the test: Dural inflammation migraine model, facial tactile hyperesthesia (50% facial response threshold, von Frey filaments). In kind it is in vivo, rat.

Here are results for three compounds from patent publication US20080031822A1, “Methods of modeling migraine pain and identifying candidate compounds for the treatment of migraine” (priority 2006, published 2008).

For `N[C@@H](CCC(=O)N[C@@H](CSN=O)C(=O)NCC(=O)O)C(=O)O` [SNOG, s-nitrosylglutathione], the “tactile hyperesthesia of the hindpaw after administration to the dura” value in the test with Male Sprague Dawley rats [1] (administered to the dura, results two hours after treatment (FIG. 4)) was “produced a tactile hyperesthesia effect similar to that induced by administration of the IM cocktail”.
As to `CCCCN1CCCCC1C(=O)Nc1c(C)cccc1C` (stereo not shown) [bupivacaine], the “50% paw withdrawal threshold versus control rats with dural IM cocktail only” value is “increase in paw withdrawal threshold” with Male Sprague Dawley rats [1] (administered in the RVM thirty minutes after IM cocktail (FIG. 9A)) and “significant increase in test animal paw withdrawal threshold” in the test with Male Sprague Dawley rats [1] (administered in the RVM two hours after IM cocktail (FIG. 9B)). The “50% facial response threshold versus control rats with dural IM cocktail only” value with Male Sprague Dawley rats [2] (administered in the RVM thirty minutes after IM cocktail (FIGS. 7A-7B)) was “increase in facial response threshold”.
Turning to `CNS(=O)(=O)Cc1ccc2[nH]cc(CCN(C)C)c2c1` [sumatriptan], the “50% paw withdrawal threshold versus control rats with dural IM cocktail only” value in the test with Male Sprague Dawley rats [1] (0.6 mg/kg s.c. ten minutes prior to IM cocktail (FIG. 8)) is “increase in paw withdrawal threshold”. Moreover, the “tactile hyperesthesia of the hindpaw induced by dural inflammation” value in the test with Male Sprague Dawley rats [1] (sumatriptan succinate subcutaneously 1 mg/kg five minutes prior to dural IM cocktail, results two hours after dural treatment (FIG. 10)) is “attenuates tactile hyperesthesia of the hindpaw”. The “50% facial response threshold versus control rats with dural IM cocktail only” value with Male Sprague Dawley rats [2] (systemic administration thirty minutes after IM cocktail (FIGS. 6A-6B)) is “increase in facial response threshold”.
